Measured values taken from patent US11026972B2, “Methods for generating macrophages with enhanced cancer phagocytosis” (Georgia State University Research Foundation, Inc., priority 2016, dated 2021).

Key:
PEMs = assay: Cell signaling inhibitors on LPS/cytokine- or PMA-induced PEM phagocytic activation toward RBCs; assay type: cell-based, mouse; conditions: for LPS and cytokine-induced phagocytic activation: PEMs treated with LPS and cytokines in the presence of inhibitors
Protocol: FIGS. 5A-5H include data related to our experiments on the role of Syk in phagocytic activation. […] PEMs were treated with LPS and cytokines in the presence of various inhibitors. After washing, inhibitor-free macrophages were tested for phagocytosis toward RBCs. […] PEMs treated with LPS and activating cytokines, or together with IL-10, were tested for total Syk and phosphorylated Syk (Syk^pY, specific at Y519/520). FIG. 5D describes PMA-induced macrophages phagocytosis toward RBCs. WT and SIRPα^−/− PEMs were treated with PMA (37° C., 30 min) before testing phagocytosis toward RBCs. FIG. 5E is a schematic depiction of PKC-Syk-mediated macrophage phagocytic activation toward self. […] Left: Inhibition of Syk by piceatannol and R406 prevented PMA-induced phagocytic activation. […] Error bars are ±SEM. ***P<0.001 vs. the respective controls. […] LPS-treated WT PEMs were further briefly treated with pervanadate before testing for phagocytosis toward RBCs. Error bars are ±SEM. ***P<0.001 vs. the respective controls. […] Data presented in each panel represent at least three independent experiments with n≥4, if applicable.
Ex vivo macrophage phagocytosis: Mouse spleens were harvested and minced in cold HBSS followed by passing through nylon meshes. The spleen cells in suspensions were collected by centrifugation followed by washing. After lysis of RBC, splenocytes were plated in cell culture dishes in DMEM with 10% FBS and cultured for 2 h followed by removal of non-adherent cells. The adherent cells, ˜70% being macrophages as determined by anti-F4/80 staining, were tested for phagocytosis. For phagocytosis of RBC or other tissue cells, targeted cells were labeled with CFSE prior to addition into the macrophage-containing wells. Macrophages and target cells, at a ratio of 1:5-10 for RBC or 1:1-2 for other cells, were co-incubated for 30 min at 37° C. followed by gently washing. Macrophage phagocytosis of target cells was then analyzed by fluorescence microscopy and/or by FACS. […] Alternatively, the freshly isolated splenocytes in suspension were incubated with CFSE-labeled RBC and other phagocytic targets for 30 min at 37° C. Macrophage phagocytosis was then determined by FACS after labeling macrophages with anti-F4/80. To test phagocytosis of apoptotic cells, B16 cells were irradiated by UV for 150 seconds at 50 J/m^2 strength. Apoptosis was analyzed at 2, 4, 6, 8 and 18 h post UV irradiation by labeling of the cells with anti-phosphatidylserine (PS) antibody (data not shown) or FITC-conjugated annexin V (data not shown). Cells that were confirmed to be apoptotic were trypsinized, labeled with CFSE, and then co-incubated with macrophages for 30 min at 37° C. After gentle washing, phagocytosis was analyzed by fluorescence microscopy and/or FACS. To test phagocytosis of bacteria and the fungal product zymosan, AlexaFluor-conjugated E.coli strain […] (2 μl suspension, ˜2 μg) or zymosan bioparticles (1 μl suspension, ˜2 μg) (both from Invitrogen) were incubated with macrophages for 30 min followed by washing and analyses. Similar procedures were performed to test phagocytosis of macrophages from various sources. To obtain peritoneal macrophages, peritonea of mice were lavaged by sterile PBS followed by centrifugation to collect cells. Cells suspended in DMEM with 10% FBS were then plated in cell culture dishes and incubated for 2 h at 37° C. followed by removal of non-adherent cells. To produce bone marrow-derived macrophages, freshly isolated bone marrow cells were culture in macrophage colony-stimulating factor (MCSF, ˜10 ng/ml)-containing MEM with 10% FBS for five-six days and macrophage differentiation was confirmed by anti-F4/80 staining.

[1] = test system: splenic macrophages, PEMs and BMDMs; assay: Ex vivo macrophage phagocytosis toward RBCs and other self-cells after activation; assay type: cell-based, mouse; conditions: for ability to induce macrophage phagocytosis toward self: PEM, lack of the CD47-SIRPα-mediated inhibition
Protocol: FIGS. 3A-3H include data related to our experiments assaying macrophage phagocytosis ex vivo. FIGS. 3A and 3B show macrophage phagocytosis of RBCs. Freshly isolated splenic macrophages (MØ) and peritoneal macrophages (PEM) and in vitro-derived BMDM (bone marrow-derived macrophages) were tested for phagocytosis toward CFSE-labeled Cd47^+ or Cd47^− RBCs. […] FIGS. 3F and 3G illustrate LPS and IL-17-activated PEM phagocytosis toward splenocytes (FIG. 3F), B16, and EL4 (FIG. 3G). Error bars are ±SEM. **P<0.01, ***P<0.001 vs. no treatment controls. […] PEM lavaged without (ctl.) or with Brewer thioglycollate (3%, i.p.) elicitation was tested. Error bars are ±SEM. ***P<0.001 vs. control PEM. Data presented in each panel represent at least three independent experiments with n≥4, if applicable.
FIGS. 4A-4E include data related to our experiments on macrophage phagocytic plasticity. FIG. 4A is a panel of illustrative line graphs showing that IL-10 inhibits macrophage phagocytosis toward “self.” PEMs were treated with LPS and activating cytokines along with various concentrations of IL-10 before testing their ability to phagocytose RBCs. FIG. 4B illustrates the phagocytic plasticity of WT red pulp macrophages. […] Treatments of cultured macrophages with LPS and IL-17 re-elicited their phagocytosis toward RBCs. […] Error bars are ±SEM. ***P<0.001 vs. freshly isolated splenic macrophages. FIG. 4D includes microscopic images of RBC phagocytosis by LPS- and IL-17-treated splenic macrophages. […] WT PEMs treated with LPS or IL-17 were further treated with Cd47^+ RBCs or Cd47-AP (10 min, 37° C.) followed by cell lysis, SIRPα immunoprecipitation, and WB detection of SIRPα phosphorylation (SIRPα^pY) and SHP-1 association. Data presented in each panel represent at least three independent experiments with n≥4, if applicable.
Ex vivo macrophage phagocytosis: Mouse spleens were harvested and minced in cold HBSS followed by passing through nylon meshes. The spleen cells in suspensions were collected by centrifugation followed by washing. After lysis of RBC, splenocytes were plated in cell culture dishes in DMEM with 10% FBS and cultured for 2 h followed by removal of non-adherent cells. The adherent cells, ˜70% being macrophages as determined by anti-F4/80 staining, were tested for phagocytosis. For phagocytosis of RBC or other tissue cells, targeted cells were labeled with CFSE prior to addition into the macrophage-containing wells. Macrophages and target cells, at a ratio of 1:5-10 for RBC or 1:1-2 for other cells, were co-incubated for 30 min at 37° C. followed by gently washing. Macrophage phagocytosis of target cells was then analyzed by fluorescence microscopy and/or by FACS. To better recognize macrophages, macrophages in wells were labeled with an anti-F4/80 or an anti-CD11b antibody. Alternatively, the freshly isolated splenocytes in suspension were incubated with CFSE-labeled RBC and other phagocytic targets for 30 min at 37° C. Macrophage phagocytosis was then determined by FACS after labeling macrophages with anti-F4/80. To test phagocytosis of apoptotic cells, B16 cells were irradiated by UV for 150 seconds at 50 J/m^2 strength. Apoptosis was analyzed at 2, 4, 6, 8 and 18 h post UV irradiation by labeling of the cells with anti-phosphatidylserine (PS) antibody (data not shown) or FITC-conjugated annexin V (data not shown). Cells that were confirmed to be apoptotic were trypsinized, labeled with CFSE, and then co-incubated with macrophages for 30 min at 37° C. After gentle washing, phagocytosis was analyzed by fluorescence microscopy and/or FACS. To test phagocytosis of bacteria and the fungal product zymosan, AlexaFluor-conjugated E.coli strain […] (2 μl suspension, ˜2 μg) or zymosan bioparticles (1 μl suspension, ˜2 μg) (both from Invitrogen) were incubated with macrophages for 30 min followed by washing and analyses. Similar procedures were performed to test phagocytosis of macrophages from various sources. […]

| Molecule | LPS and cytokine-induced phagocytic activation (PEMs) | other results |
| --- | --- | --- |
| O=C(O)CN(CCN(CC(=O)O)CC(=O)O)CC(=O)O [EDTA] | – | macrophage phagocytic activation (PEMs; presence of EDTA): hindered macrophage phagocytic activation |
| COc1cc2ncnc(Nc3ccc(O)cc3)c2cc1OC [JAK3 inhibitor I] | diminished phagocytic activation induced by certain, but not all stimuli | – |
| Cc1ccc(NCCCc2ccccc2)c(N)c1 [JSH-23] | diminished phagocytic activation induced by certain, but not all stimuli | – |
| C/C(O)=C(\C#N)C(=O)Nc1cc(Br)ccc1Br [LFM-13] | diminished phagocytic activation induced by certain, but not all stimuli | – |
| COc1cccc(-c2cc(=O)c3ccccc3o2)c1N [PD98059] | diminished phagocytic activation induced by certain, but not all stimuli | – |
| Cc1ccc(-c2nn(C(C)(C)C)c3ncnc(N)c23)cc1 [PP1] | diminished phagocytic activation induced by certain, but not all stimuli | – |
| CC(C)(C)n1nc(-c2ccc(Cl)cc2)c2c(N)ncnc21 [PP2] | diminished phagocytic activation induced by certain, but not all stimuli | – |
| COc1cc(Nc2ncc(F)c(Nc3ccc4c(n3)NC(=O)C(C)(C)O4)n2)cc(OC)c1OC [R406] | – | PEM activation (PEMs; 400 nM, all stimuli): nearly completely eliminated PEM activation induced by all stimuli; PMA-induced PEM phagocytosis (PEMs; Syk inhibition): eliminated the PMA-induced PEM phagocytosis; LPS-induced activation of PEM phagocytosis toward RBC (PEMs; dose dependence): dose-dependently inhibited |
| C[S+]([O-])c1ccc(-c2nc(-c3ccncc3)c(-c3ccc(F)cc3)[nH]2)cc1 (centres unmarked) [SB203580] | diminished phagocytic activation induced by certain, but not all stimuli | – |
| COc1ccc2c(c1)CC[C@@H]1[C@@H]2CC[C@]2(C)[C@@H](NCCCCCCN3C(=O)C=CC3=O)CC[C@@H]12 [U73122] | diminished phagocytic activation induced by certain, but not all stimuli | – |
| JAK inhibitor I | diminished phagocytic activation induced by certain, but not all stimuli | – |
| pervanadate | – | Cd47-dependent phagocytic recognition ([1]; LPS-treated WT PEMs briefly treated with pervanadate): eliminates Cd47-dependent phagocytic recognition |
| tumor necrosis factor-alpha [TNFα] | – | ability to induce macrophage phagocytosis toward self [1]: have the ability to induce macrophage phagocytosis toward self |
| IL-1β: recombinant murine cytokine, PeproTech (protein, UniProt P10749 118-269, looked up) Interleukin-1 beta: VPIRQLHYRLRDEQQKSLVLSDPYELKALHLNGQNINQQVIFSMSFVQGEPSNDKIPVALGLKGKNLYLSCVMKDGTPTLQLESVDPKQYPKKKMEKRFVFNKIEVKSKVEFESAEFPNWYISTSQAEHKPVFLGNNSGQDIIDFTMESVSS | – | ability to induce macrophage phagocytosis toward self [1]: have the ability to induce macrophage phagocytosis toward self |
| IFNγ: recombinant murine cytokine, PeproTech (protein, UniProt P01580 23-155, looked up) Interferon gamma: HGTVIESLESLNNYFNSSGIDVEEKSLFLDIWRNWQKDGDMKILQSQIISFYLRLFEVLKDNQAISNNISVIESHLITTFFSNSKAKKDAFMSIAKFEVNNPQVQRQAFNELIRVVHQLLPESSLRKRKRSRC | – | ability to induce macrophage phagocytosis toward self [1]: not |
